Reference: patent publication US20050171036A1, “Use of antitumor indolopyrrolocarbazole derivative and other anticancer agent in combination” (priority 2002, published 2005)

Key:
Format in all cases: in vivo
[1] = tested on: P388 mouse leukemia cells; assay: Survival of mice with intraperitoneal P388 leukemia, combined use (Example 2); settings: CDF1 mice, P388 i.p., single i.p. dose day 1, Compound A 75, CDDP 1.67, ADM 1.5, VP-16 7.5 mg/kg; for Number of days survived (average ± standard deviation): complete remission counted as 60 days; for Increased life span (ILS %): versus control
Protocol: P388 mouse leukemia cells (1×10^6 cells) were transplanted intraperitoneally per mouse (day 0). One drug or two drugs were intraperitoneally administered on the next day (day 1). […] The ratio of increased life span (ILS %) was determined according to the following equation: ILS %=((the number of survived days for the group treated with drug)/(the number of survived days for the control group without drug)−1)×100
The combination index (CI) showing combination effect was determined by the following equation in accordance with the method by Uchida et al. (Uchida et al., Gan to Kagaku Ryouhou (Cancer and Chemotherapy), 25, 75-78 (1998)) based on the ILS % obtained from the treatment using one drug and the ILS % obtained from the combined treatment. CI=ILS % of the combined treatment/(ILS % with J-107088 (Compound A) alone+ILS % with another drug)
CI>1: synergistic effect, CI=1: additive effect, CI<1: antagonistic effect

[2] = Toxicity of equivalent-ILS doses given intraperitoneally for 5 consecutive days (Example 4); settings: ADM 1.5 mg/kg alone, Compound A 5 + ADM 0.3 mg/kg
Protocol: This dose was intraperitoneally administered to mice once a day for consecutive 5 days. Thereafter, whether the animal was alive or dead was observed, and the effect of lowering toxicity was judged. As the toxicity index, the changes in the body weight between that before the administration and that on the subsequent day after the administration were recorded.

[3] = tested on: P388 mouse leukemia cells; assay: Survival of mice with intraperitoneal P388 leukemia, equivalent-ILS doses (Example 4); settings: CDF1 mice, P388 i.p.; single i.p. dose day 1; Compound A 25 mg/kg alone, ADM 1.5 mg/kg alone, Compound A 5 + ADM 0.3 mg/kg
Protocol: P388 mouse leukemia cells (1×10^6 cells) were transplanted intraperitoneally per mouse (day 0). One drug or two drugs were intraperitoneally administered on the next day (day 1). […] The ratio of increased life span (ILS %) was determined in the same manner as in Example 2.

Compound	Number of days survived (average ± standard deviation) [1]	Increased life span (ILS %) [1]	Change in body weight (g) ([2]; before administration versus day after administration, i.p. once a day for 5 days)	Number of dead animals/number of animals per group ([2]; i.p. once a day for 5 consecutive days, Compound A 25 mg/kg alone)	Ratio of increased life span (ILS %) [3]
[NH2][Pt]([NH2])([Cl])[Cl] [CDDP, cisplatin]	25.4 ± 19.6 days	121%			
COc1cccc2c1C(=O)c1c(O)c3c(c(O)c1C2=O)C[C@@](O)(C(=O)CO)C[C@@H]3O[C@H]1C[C@H](N)[C@H](O)[C@H](C)O1 [ADM, adriamycin (doxorubicin)]	19.0 ± 1.9 days	65%	+0.1 g	0/4	92%
COc1cc([C@@H]2c3cc4c(cc3[C@@H](O[C@@H]3O[C@@H]5CO[C@@H](C)O[C@H]5[C@H](O)[C@H]3O)[C@H]3COC(=O)[C@H]23)OCO4)cc(OC)c1O [VP-16, etoposide]	17.4 ± 4.1 days	51%			
